Measured values reported in US10745370B2, “Farnesyl transferase inhibitors and uses thereof” (MACKAY MEMORIAL HOSPITAL, priority 2016, dated 2020).
Several values for one entry are separate records, joined by “and”; a condition that tells them apart may be missing. Equal entries are not always repeated. Entries after “also recorded” stand apart in the source; their conditions may differ.

What was measured:
rat PFTase = target: T1, rat PFTase (Rattus norvegicus, UniProt Q02293+Q04631); assay: Inhibition of farnesyl transferase (fluorescence assay); format: biochemical; settings: mean ± SD of three independent experiments
T1 construct: purchased Jena Biosciences
Procedure: The assay was carried out in 384-well microplates with a final volume of 20 μl by the method modified from the previous report (Long et al., 2009). Briefly, 10 nM of rat PFTase (Jena Biosciences, Jena, Germany) was incubated with the tested compound or DMSO (1%) for 15 min, and then the mixture was added in a solution (50 mM Tris-HCl, pH 7.5, 5 mM MgCl2, 5 mM DTT, 0.1 mM ZnCl2, 0.2% octyl-β-D-glucopyranoside (Sigma, St. Louis, Mo.), 10 μM PFTase substrate dansyl-Gly-Cys-Val-Leu-Ser-OH, and 10 μM farnesyl pyrophosphate (Sigma, St. Louis, Mo.)) to initiate the reaction. The reaction was incubated at 37° C. for 30 min, and the fluorescence was detected by a M5 plate reader (Molecular Devices, CA, USA) at 340 nm excitation and 505 nm emission.

M2 macrophages [1] = assay: Cell marker expression on M2 macrophages, flow cytometry; format: cell-based, human; settings: for CD14: M2 population after treatment: Table 5; for CD80 expression on M2 macrophages: control 47.64%; for CD14 expression on M2 macrophages: control 55.66%; for CD206 expression on M2 macrophages: control 74.49%
Procedure: (§1) M1 differentiation of freshly isolated CD14^+ cells was induced by the addition of lipopolysaccharide (LPS), while M2 differentiation of freshly isolated CD14^+ cells was induced by the addition of IL-4. Then, the present compounds (e.g., Mib-5, 6, 7, 8, 9, or 10) were added at the indicated dosages. 6 days later, the population of the differentiated macrophages were then determined by cell viability analysis.
(§2) The expression of various types of cell markers, such as CD14, CD206, and CD80 expressed on the surface of macrophages, and CD1a, CD14, CD83, and HLA-DR expressed on the dendritic cells, were respectively detected by fluorescein isothiocyanate (FITC) and phycoerythrin (PE)-conjugated monoclonal antibodies in FACS caliber flowcytometer. Monoclonal antibodies used in this examples included anti-CD14 (IgG-FITC), anti-CD206 (IgG-FITC), anti-CD80-PE, anti-CD1a-PE, anti-CD83-PE and anti-human leukocyte antigen (HLA)-DR-PE. Results were analyzed by CellQuest software.

dendritic cells [2] = assay: Trypan blue exclusion analysis of dendritic cells; format: cell-based, human; settings: 10 μM, seven days, FIG. 7
Procedure: (§3) Mononuclear cells (MNCs) were separated from the peripheral blood of healthy donors obtained with written consent by use of Ficoll-Hypaque density centrifugation, followed by positive selection with magnetic anti-CD14 microbeads.
(§4) The isolated CD14^+ cells were cultivated in Minimum Essential Medium (MEM medium) supplemented with 10% fetal bovine serum (FBS), 100 ng/ml granulocyte-macrophage colony-stimulating factor (GM-CSF, Gentaur), and 50 ng/ml interleukin-4 (IL-4, R&D), and kept in an environment of 37° C. with 5% CO2/95% air.
(§5) To evaluate the effects of the present compound on dendritic cells, the CD14^+ cells were respectively treated with 10 μM of test compound (i.e., Mib-5, Mib-6, Mib-7, Mib-8, Mib-9, and Mib-10) on day 1. Then, on day 3, the cultured medium in each well was replenished by adding half the volume of the cultured medium containing the same treatment as indicated above. Then, on day 6, a cytokine cocktail containing IL-1, IL-6, and tumor necrosis factor-α (TNF-α) was added to induce maturation. On day 7, the differentiated dendritic cells were collected and subjected to further assays, including viability assay, morphology observation, and cell marker staining.
(§6) The dye exclusion test is used to determine the number of viable cells present in a cell suspension. […] In this test, the cells were first treated with a test compound (i.e., Mib-5, 6, 7, 8, 9 or 10) for a certain period of time (e.g., 72 hours), then the cells were harvested and re-suspended in suitable buffer solution. The cell suspension was then mixed with trypan blue dye and then visually examined to determine whether cells had taken up or excluded the dye. A viable cell will have a clear cytoplasm, whereas a nonviable cell will have a blue cytoplasm. The concentration required to reduce viability by 50% (IC50) after 72 hours was extrapolated from the dose-response curves by different concentrations of the test compound using a second-order polynomial regression model and analyzing with SigmaPlot Software (Systat Software Inc., San Jose, Calif.).
(§7) In this example, the effects of the present compounds on dendritic cells were investigated. Briefly, the dendritic cells were respectively treated with 10 μM of Mib-5, Mib-6, Mib-7, Mib-8, or Mib-10. Seven days later, the cells were harvested and subjected to analysis of morphology observation, cell viability, and/or cell marker expression.

M1 macrophages [3] = assay: Differentiation analysis, cell viability of M1 macrophages; format: cell-based, human; settings: for Cell viability of M1 macrophages: LPS-induced M1 differentiation, 6 days, control 100%
Procedure: as §1, with “analysis. The cell viability was measured by cell counting kit-8 (CCK-8, Sigma). The half maximal inhibitory concentrations (IC50) of the test compounds on macrophages or dendritic cells were calculated.” for “analysis.”

M1 macrophages [4] = assay: Cell marker expression on M1 macrophages, flow cytometry; format: cell-based, human; settings: for CD14: M1 population after treatment: Table 5; for CD80: change in M1 population: Table 6; for CD206: change in M1: Table 7; for CD206 expression on M1 macrophages: control 14.27%; for CD80 expression on M1 macrophages: control 71.34%; for CD14 expression on M1 macrophages: control 99.83%
Procedure: as §1, §2

dendritic cells [5] = assay: Cell marker expression on dendritic cells, flow cytometry; format: cell-based, human; settings: 10 μM; for expression of CD1a, differentiation marker of dendritic cells: FIG. 9; for expression of CD83, maturation marker of dendritic cells: FIG. 10
Procedure: as §3, §4, §5, §2, §7

M2 macrophages [6] = assay: Differentiation analysis, cell viability of M2 macrophages; format: cell-based, human; settings: for Cell viability of M2 macrophages: IL-4-induced M2 differentiation, 6 days, control 100%; for change in M2 population of macrophages compared with control: Table 4
Procedure: as §1, with “analysis. The cell viability was measured by cell counting kit-8 (CCK-8, Sigma). The half maximal inhibitory concentrations (IC50) of the test compounds on macrophages or dendritic cells were calculated.” for “analysis.”

dendritic cells [7] = assay: Morphology of dendritic cells by Liu's staining; format: cell-based, human; settings: 10 μM, seven days, FIG. 8
Procedure: as §3, §4, §5
(§8) Cells were transferred to a glass coverslide and covered with solution A (0.5 g of methylene blue and 1.7 g of Eosin yellow dissolved in 1,000 ml of ethanol). After 45 seconds, solution B (1.3 g of azure, 1.4 g of methylene blue, 23.38 g of Na2HPO4, 6.5 g of KH2PO4, dissolved in 1,000 ml of distilled water) was added in the proportion of 2 parts of B to 1 part of A. Mixed the solutions well by blowing the surface. The slide was left standing for 90 seconds and then washed off the staining solution rapidly by running water. The morphology of stained cells was then examined under microscope.
as §7

macrophages [8] = assay: Cell marker expression on macrophages (total), flow cytometry; format: cell-based, human; settings: for total expressed level of CD14: FIG. 3; for level of CD206: FIG. 5; for total level of CD80: compared with the control
Procedure: as §3, §4, §5
(§9) As to the effects of the present compound on macrophages, the CD14^+ cells were cultivated and treated as indicated above except the addition of cytokine cocktail on day 6. The macrophages were collected on day 6 and subjected to further assays, including viability assay, trypan blue exclusion test, morphology observation, cell marker staining, and phagocytotic activity analysis.
as §2

macrophages [9] = assay: Trypan blue exclusion test on macrophages; format: cell-based; settings: trypan blue analysis, FIG. 2
Procedure: as §3, §4, §5, §9, §6

macrophages [10] = assay: Phagocytosis assay with fluorescent latex beads; format: cell-based, human; settings: M1 and/or M2 populations, FIG. 6
Procedure: as §9
The phagocytic activity of macrophages was measured by using flow cytometric analysis. The green fluorescent latex beads (carboxylate-modified beads with diameter 2 μm) were suspended in PBS solution and added into macrophage culture for 2 hours with vortexa at 37° C. The macrophages were subjected to flow cytometry for measurement of fluorescent intensity

macrophages [11] = assay: Morphology of macrophages (photographs, Liu's staining); format: cell-based, human; settings: for morphology of cells by Liu's staining compared with control cells: FIG. 1 panel C
Procedure: as §3, §4, §5, §9, §8

Row | Structure (SMILES) | IC50 (rat PFTase) | CD14: M2 population after treatment (M2 macrophages [1]) | CD80 expression on M2 macrophages (M2 macrophages [1]) [%] | CD14 expression on M2 macrophages (M2 macrophages [1]) [%] | CD206 expression on M2 macrophages (M2 macrophages [1]) [%] | levels of viable dendritic cells (dendritic cells [2]) | Cell viability of M1 macrophages (M1 macrophages [3]) [%] | CD14: M1 population after treatment (M1 macrophages [4]) | CD80: change in M1 population (M1 macrophages [4]) | CD206: change in M1 (M1 macrophages [4]) | CD206 expression on M1 macrophages (M1 macrophages [4]) [%] | CD80 expression on M1 macrophages (M1 macrophages [4]) [%] | CD14 expression on M1 macrophages (M1 macrophages [4]) [%] | expression of CD1a, differentiation marker of dendritic cells (dendritic cells [5]) | expression of CD83, maturation marker of dendritic cells (dendritic cells [5]) | Cell viability of M2 macrophages (M2 macrophages [6]) [%] | change in M2 population of macrophages compared with control (M2 macrophages [6]) | dendritic cell morphology compared with control group (dendritic cells [7]) | total expressed level of CD14 (macrophages [8]) | level of CD206 (macrophages [8]) | also measured
1 | CSCC[C@H](NC(=O)c1ccc(NC(=O)[C@@H](N)CS)cc1)C(=O)O [FTase Inhibitor II, reference compound] | 0.13 ± 0.03 µM | – | – | – | – | – | – | – | – | – | – | – | – | – | – | – | – | – | – | – | –
2 | COC1=CC(=O)[C@@]2(c3cc(=O)c4c(O)cc(OC)cc4o3)[C@H](C[C@]3(C)[C@@H](C(=O)O)CC=C4[C@H]3CCCC4(C)C)C(C)=CC[C@H]2C1=O [Mib-6] | < 10 µM and 4.97 µM | significant decrease | 41.4 | 91.25 | 77.78 | reduced | 57.2 | remained relatively unchanged | reduction | significant decrease | 4.52 | 6.59 | 86.43 | inhibited | inhibited | 90.6 | slight decrease | cell death reflected in morphology changes, and less dendritic process | not affected | increase | CD206: change in M2 (M2 macrophages [1]; Table 7): increase; change in M1 population of macrophages compared with control (M1 macrophages [3]; Table 4): significant reduction; total level of CD80 (macrophages [8]): significantly reduced; cell viability / cytotoxicity toward macrophages (macrophages [9]): slight toxicity; also recorded: no significant cytotoxicity; phagocytic activity compared with control (macrophages [10]): not; morphology and adhesion of treated macrophages (macrophages [11]; 10 μM, FIG. 1 panel B): became rounded up, and were less adhesive; morphology of cells by Liu's staining compared with control cells (macrophages [11]): not significantly affected
3 | COC1=CC(=O)[C@@]2(c3cc(=O)c4c(O)cc(O)cc4o3)[C@H](CC=C(C)[C@@H]2C[C@]2(C)[C@@H](C(=O)O)CC=C3[C@H]2CCCC3(C)C)C1=O [Mib-8] | < 10 µM and 5.05 µM | significant decrease | 56.66 | 62.34 | 51.05 | remained relatively unchanged | 79.4 | remained relatively unchanged | reduction | significant decrease | 11.98 | 60.16 | 99.73 | not | not affected | 100 | no effect | did not cause any significant changes | not affected | increase | CD80: change in M2 population (M2 macrophages [1]; Table 6): increase; reduction in the M1 population (M1 macrophages [3]; compared with control, Table 4): about 20%; increase of total level of CD80 as compared with the control (macrophages [8]): about 2 folds; total level of CD80 (macrophages [8]): increased; cell viability / cytotoxicity toward macrophages (macrophages [9]): did not adversely affect cell viability; also recorded: no significant cytotoxicity; phagocytic activity compared with control (macrophages [10]): reduced; cells exhibiting adhesive morphology (macrophages [11]; 10 μM, FIG. 1 panel A): about 20%; morphology of cells by Liu's staining compared with control cells (macrophages [11]): not significantly affected
4 | COC1=CC(=O)[C@@]2(c3cc(=O)c4ccc(O)cc4o3)[C@H](C[C@]3(C)[C@@H](C(=O)O)CC=C4[C@H]3CCCC4(C)C)C(C)=CC[C@H]2C1=O [Mib-9] | ~47 µM and 47 µM | – | – | – | – | – | – | – | – | – | – | – | – | – | – | – | – | – | – | – | –
